Test results taken from patent publication USRE46095E1, “Herbicidal compositions” (BAYER CROPSCIENCE AG, priority 2008, dated 2016).
Counter-ions that a name gives are not always drawn.

How the values were obtained:
Format in all cases: in vivo
Geranium dissectum = test: Pre-emergence herbicidal action, pot trial/greenhouse (Example 5.3, Table 6); details: 672 h, read-out: Herbicidal action [%] against Geranium dissectum; for pest or weed control at 50 g/ha: 50 g of AS/ha
Excerpt: (§1) Seeds or rhizome pieces of monocotyledonous and dicotyledonous harmful plants are placed in sandy loam in pots and covered with soil. The compositions, formulated as concentrated aqueous solutions, wettable powders or emulsion concentrates, are then applied to the surface of the covering soil as an aqueous solution, suspension or emulsion at an application rate of 300 to 800I of water/ha (converted) in a variety of dosages. After the treatment, the pots are placed in a green-house and kept under good growth conditions for the weeds. Visual scoring of plant or emergence damage is carried out after the test plants have emerged after an experimental period of 3 to 4 weeks in comparison with untreated controls.
(§2) The herbicidal efficacy of the active compounds or active compound mixtures was scored visually by comparing the treated pots (soil) with untreated controls. The damage and development of all above-ground plant parts was recorded. Scoring was done on a percentage scale (example values: 100% action=all plants dead or not emerged; 50% action=50% of the plants and green plant parts dead or not emerged; 0% action=no discernible action=like control plot). The score figures of in any case 2 repetitions (pots) were averaged.
(§3) When the data observed already exceed the formal total of the data in the experiments with individual applications, they likewise exceed the expected value according to Colby, which is calculated using the formula below and is likewise regarded as an indication of synergism (cf. S. R. Colby; in Weeds 15 (1967) pp. 20 to 22): E=A+B−(A·B/100)
(§4) In this formula: • A=action of active compound (A) in % at an application rate of a g of AS/ha; • B=action of active compound (B) in % at an application rate of b g of AS/ha; • E=expected value of the action of the combination (A)+(B) in % at the combined application rate a+b g of AS/ha.
(§5) The following abbreviations are used in the description and the tables below: • g of AS/ha=grams of active substance (=100% active compound) per hectare; • the total of the activities of the individual applications is given as E^A; • the expected values according to Colby are in each case given as E^C; Example 5.1
(§6) Certain combinations were tested for their herbicidal activity in accordance with the general example 1 (pre-emergence method).

Erodium cicutarium = test: Pre-emergence herbicidal action, pot trials/greenhouse (Example 5.2, Table 5); details: evaluation 28 days after treatment
Excerpt: as §1, §2, §3, §4, §5, §6

Ipomoea hederifolia = test: Pre-emergence herbicidal action, pot trials/greenhouse (Example 5.1, Table 4); details: evaluation 27 days after treatment
Excerpt: as §1, §2, §3, §4, §5, §6

[1] = pot trial/greenhouse, evaluation 28 days after treatment

CCOC1Oc2ccc(OS(C)(=O)=O)cc2C1(C)C (racemic) [(B2.5), (RS)—O-(2-ethoxy-2,3-dihydro-3,3-dimethylbenzofuran-5-yl)methanesulfonate]
pest or weed control at 300 g/ha (Geranium dissectum; 300 g of AS/ha, pot trial/greenhouse, evaluation 28 days after treatment): 35%

Cc1ccc2c(c1)[C@H](Nc1nc(N)nc([C@@H](C)F)n1)[C@@H](C)C2 [(A21), 2-amino-4-[(1R,2S)-2,6-dimethyl-indan-1-ylamino]-6-[(1R)-1-fluoroethyl]-1,3,5-triazine]
Herbicidal action [%] against Erodium cicutarium (Erodium cicutarium; 0.2 g of AS/ha): 0% | Herbicidal action [%] against Erodium cicutarium (Erodium cicutarium; 0.8 g of AS/ha): 25% | Herbicidal action [%] against Ipomoea hederifolia (Ipomoea hederifolia; 0.2 g of AS/ha): 0% | Herbicidal action [%] against Ipomoea hederifolia (Ipomoea hederifolia; 0.5 g of AS/ha): 45% | pest or weed control at 0.3 g/ha (Geranium dissectum; 0.3 g of AS/ha, pot trial/greenhouse, evaluation 28 days after treatment): 5% | pest or weed control at 1.2 g/ha (Geranium dissectum; 1.2 g of AS/ha, pot trial/greenhouse, evaluation 28 days after treatment): 20%

COC(=O)c1csc(C)c1S(=O)(=O)NC(=O)n1nc(OC)n(C)c1=O [(B1.1.2), methyl 4-[(4,5-dihydro-3-methoxy-4-methyl-5-oxo-1H-1,2,4-triazol-1-yl)carbonylsulfamoyl]-5-methylthiophene-3-carboxylate]
Herbicidal action [%] against Ipomoea hederifolia (Ipomoea hederifolia; 0.5 g of AS/ha): 5% | Herbicidal action [%] against Ipomoea hederifolia (Ipomoea hederifolia; 2.0 g of AS/ha): 50%

CS(=O)(=O)c1ccc(C(=O)C2C(=O)CCCC2=O)c(Cl)c1COCC(F)(F)F [(B1.2.1), 2-{2-chloro-4-mesyl-3-[(2,2,2-trifluoroethoxy)methyl]benzoyl}cyclohexane-1,3-dione]
Herbicidal action [%] against Erodium cicutarium (Erodium cicutarium; 50 g of AS/ha): 30%

CCOC(=O)COc1ncccc1Oc1cc(-n2c(=O)cc(C(F)(F)F)n(C)c2=O)c(F)cc1Cl [(B1.3), ethyl [[3-[2-chloro-5-[3,6-dihydro-3-methyl-2,6-dioxo-4-(trifluoromethyl)-1(2H)-pyrimidinyl]-4-fluorophenoxy]-2-pyridinyl]oxy]acetate]
Herbicidal action [%] against Erodium cicutarium (Erodium cicutarium; 15 g of AS/ha): 65%

COc1cc(OC)n2nc(NS(=O)(=O)c3c(C(F)(F)F)ccnc3OC)nc2n1 [(B1.4.1), N-(5,7-dimethoxy[1,2,4]triazolo[1,5-a]pyrimidin-2-yl)-2-methoxy-4-(trifluoromethyl)pyridine-3-sulfonamide]
Herbicidal action [%] against Erodium cicutarium (Erodium cicutarium; 5 g of AS/ha): 50%

COCCOCc1nc(C(F)(F)F)ccc1C(=O)C1=C(O)C2CCC(C2)C1=O (stereo not shown) [(B1.6.1), 4-hydroxy-3-[[2-[(2-methoxyethoxy)methyl]-6-trifluoromethyl-3-pyridinyl]carbonyl]-bicyclo[3.2.1]oct-3-en-2-one]
Herbicidal action [%] against Erodium cicutarium (Erodium cicutarium; 30 g of AS/ha): 55%

Cc1nn(C)c(O)c1C(=O)c1ccc(C(F)(F)F)cc1S(C)(=O)=O [(B2.1.1), (5-hydroxy-1,3-dimethyl-1H-pyrazol-4-yl)-[2-(methylsulfonyl)-4-(trifluoromethyl)-phenyl]methanone]
pest or weed control at 30 g/ha (Geranium dissectum; 30 g of AS/ha, pot trial/greenhouse, evaluation 28 days after treatment): 20%

COc1cc(OC)nc(NC(=O)NS(=O)(=O)c2ncccc2OCC(F)(F)F)n1 [(B2.2.2), 1-(4,6-dimethoxypyrimidin-2-yl)-3-[3-(2,2,2-trifluoroethoxy)-2-pyridylsulfonyl]urea sodium salt]
pest or weed control at 25 g/ha (Geranium dissectum): 45%

CC(C)N(C)S(=O)(=O)NC(=O)c1cc(-n2c(=O)cc(C(F)(F)F)n(C)c2=O)c(F)cc1Cl [(B2.3.1), 2-chloro-5-[3,6-dihydro-3-methyl-2,6-dioxo-4-(trifluoromethyl)-1 (2H)-pyrimidinyl]-4-fluoro-N-[[methyl(1-methylethyl)amino]sulfonyl]benzamide]
pest or weed control at 50 g/ha (Geranium dissectum; [1]): 65%

Nc1cc(Cl)nc(C(=O)O)c1Cl [(B2.4.1), 4-amino-3,6-dichloropyridine-2-carboxylic acid]
pest or weed control at 75 g/ha (Geranium dissectum; 75 g of AS/ha, pot trial/greenhouse, evaluation 28 days after treatment): 50%

Nc1nc(C2CC2)nc(C(=O)O)c1Cl [(B2.6.1), 6-amino-5-chloro-2-cyclopropylpyrimidine-4-carboxylic acid]
pest or weed control at 100 g/ha (Geranium dissectum; 100 g of AS/ha, pot trial/greenhouse, evaluation 28 days after treatment): 65%

Cn1nc(C(F)(F)F)c(CS(=O)(=O)C2=NOC(C)(C)C2)c1OC(F)F [(B3.1), 3-[5-(difluoromethoxy)-1-methyl-3-(trifluoromethyl)pyrazol-4-ylmethylsulfonyl]-4,5-dihydro-5,5-dimethyl-1,2-oxazole]
pest or weed control at 50 g/ha (Geranium dissectum; [1]): 50%
